Counter-ions that a name gives are not always drawn. Like-named read-outs stand apart in the source and are kept apart here.
Key:
[1] = tested on: PRMT5-dependent Symmetric Di-methyl Arginine signal in HCT116 homozygous MTAP Knockout cells; assay: SYM11 In-Cell Western in HCT116 homozygous MTAP knockout cells; assay type: cell-based
Description: HCT116 cells were genetically engineered to knock out the function of both MTAP alleles using a CRISPR/Cas9 system and an sgRNA targeting the MTAP gene. Following Cas9/MTAP sgRNA transduction, clones were screened to confirm that each allele of the MTAP gene had been inactivated (i.e., homozygous MTAP knock out) creating an MTAP-deficient cell.
Control samples were analyzed in parallel.
Briefly, on Day 0, 2,000 HCT116 parental or HCT116 homozygous MTAP knockout cells were seeded in 96 well plates in McCoy's 5A supplemented with 10% fetal bovine serum and pen/strep and the cells were incubated overnight at 37° C. plus 5% CO2. The following day, cells were treated with DMSO vehicle control or a dose response of PRMT5 inhibitors, and incubated at 37° C. plus 5% CO^2 for four days.
After 4 days of treatment, the cells were fixed by adding 50 μl of 4% paraformaldehyde solution to each well and the cells were incubated for 20 min at room temperature. The paraformaldehyde solution was removed, 150 μl of ice-cold methanol was added and the plate was placed −20° C. for 10 minutes. The methanol was removed, 150 μl of Odyssey Blocking buffer+0.05% Tween20 was added and the plate was incubated at room temperature with shaking for one hour.
The primary SYM11 antibody solution was removed by aspiration and the wells were washed three consecutive times with phosphate buffered saline containing 0.1% Tween-20 (PBST).
The secondary antibody solution was removed by aspiration and the wells were washed three consecutive times with PBST.
The SYM11 signal and the DRAQ5 signal were quantified using a Li-Cor Odyssey machine reading at […], respectively. The SYM11/DRAQ5 ratio was used to calculate the inhibition of Symmetric Dimethyl Arginine as percent of DMSO control.

[2] = tested on: HCT116 homozygous MTAP knockout cells; assay: Proliferation assay (CellTiter-Glo, 10 days) in HCT116 homozygous MTAP knockout cells; assay type: cell-based; conditions: CellTiter-Glo after 10 days of treatment, read-out: Proliferation IC50 (nM) HCT116 MTAP_KO
Summary of the method: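 MTAP-null HCT116 clone made by CRISPR/Cas9 knockout of both alleles, tested beside parental cells. Cells dosed the day after seeding, split 1:10 on day 6 into fresh medium with the same compound level, and read on day 11 by CellTiter-Glo. IC50 taken after 10 days of exposure.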

PRMT5/MEP50 complex = target: T1, PRMT5/MEP50 complex (Homo sapiens, UniProt O14744); assay: PRMT5:MEP50 HotSpot Assay (full-length histone H2A substrate, plus and minus MTA); assay type: biochemical; conditions: IC50 + 2 μM MTA, in the presence of 2 μM MTA
T1 construct: purchased Reaction Biology Corporation
Summary of the method: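 Radiometric HotSpot format using recombinant full-length histone H2A as substrate, run with and without MTA. Reactions were stopped and spotted onto filter paper. Tritiated H2A was quantified by scintillation counting.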

[3] = Homo sapiens, HCT-116, 96 h, 4 days of treatment, SYM11/DRAQ5 ratio as percent of DMSO control, read-out: In-cell-Western (SYM11) IC50 (nM) HCT116 MTAP_KO
[4] = 4 days of treatment, SYM11/DRAQ5 ratio as percent of DMSO control, read-out: In-cell-Western (SYM11) IC50 (nM) HCT116 MTAP_KO
[5] = read-out: In-cell-Western (SYM11) IC50 (nM) HCT116 MTAP_KO, 4 days of treatment, SYM11/DRAQ5 ratio as percent of DMSO control

T1 sequence (O14744 2-637 limits assumed): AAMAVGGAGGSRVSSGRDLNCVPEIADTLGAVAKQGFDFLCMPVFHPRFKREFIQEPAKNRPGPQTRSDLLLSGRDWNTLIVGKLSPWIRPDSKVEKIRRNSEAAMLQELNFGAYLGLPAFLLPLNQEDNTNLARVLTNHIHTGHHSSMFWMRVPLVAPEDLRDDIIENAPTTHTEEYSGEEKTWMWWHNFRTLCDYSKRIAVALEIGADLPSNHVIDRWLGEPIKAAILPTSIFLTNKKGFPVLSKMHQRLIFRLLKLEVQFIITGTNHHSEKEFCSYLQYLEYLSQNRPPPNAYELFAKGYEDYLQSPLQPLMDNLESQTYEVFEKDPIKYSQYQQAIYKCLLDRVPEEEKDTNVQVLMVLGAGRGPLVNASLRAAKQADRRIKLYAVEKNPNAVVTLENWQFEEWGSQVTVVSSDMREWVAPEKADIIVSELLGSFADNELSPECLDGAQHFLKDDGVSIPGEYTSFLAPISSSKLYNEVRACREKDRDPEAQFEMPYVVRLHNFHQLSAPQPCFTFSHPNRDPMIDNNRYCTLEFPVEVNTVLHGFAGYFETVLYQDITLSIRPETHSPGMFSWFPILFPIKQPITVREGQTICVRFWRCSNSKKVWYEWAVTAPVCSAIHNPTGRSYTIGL
T1 sequence (Q9BQA1 2-342 partner limits assumed): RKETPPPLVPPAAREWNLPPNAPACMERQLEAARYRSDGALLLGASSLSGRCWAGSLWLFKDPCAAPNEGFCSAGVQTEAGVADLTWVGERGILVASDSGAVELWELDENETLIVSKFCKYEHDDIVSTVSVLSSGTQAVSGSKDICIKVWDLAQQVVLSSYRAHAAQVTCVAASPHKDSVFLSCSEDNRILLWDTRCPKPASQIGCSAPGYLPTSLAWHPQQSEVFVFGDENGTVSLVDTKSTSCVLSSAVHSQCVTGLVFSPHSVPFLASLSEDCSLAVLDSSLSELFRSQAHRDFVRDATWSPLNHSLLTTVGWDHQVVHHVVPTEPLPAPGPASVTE

Q: With CCc1cccc(-c2c(-c3cc4c(CN)n[nH]c(=O)c4cn3)cnn2C)c1C#N [Example 17-1, 2-[4-[1-(aminomethyl)-4-oxo-3H-pyrido[3,4-d]pyridazin-7-yl]-2-methyl-pyrazol-3-yl]-6-ethyl-benzonitrile] as the compound, how does the IC50 [1, 3] read?
A: The IC50 was 538 nM.

Q: And the IC50 ([2]; Homo sapiens, HCT-116, 240 h)?
A: The IC50 was 3870 nM.

Q: For Cn1ncc(-c2ccc3c(=O)[nH]nc(CN)c3c2)c1-c1ccc2ncc(F)cc2c1C#N [Example 4-264, 6-[4-[4-(aminomethyl)-1-oxo-2H-phthalazin-6-yl]-2-methyl-pyrazol-3-yl]-3-fluoro-quinoline-5-carbonitrile], which IC50 [1, 3] is on record?
A: The IC50 was 23 nM.

Q: What about the IC50 ([2]; Homo sapiens, HCT-116, 240 h) of the same compound?
A: Its IC50 is 83 nM.

Q: Cc1c(F)c(-c2c(-c3cc(C)c4c(=O)[nH]nc(CN)c4c3)cnn2C)c(C#N)c2ncc(Cl)cc12 (single isomer, unassigned) [Example 16-96, (M)-7-(4-(4-(aminomethyl)-8-methyl-1-oxo-1,2-dihydrophthalazin-6-yl)-1-methyl-1H-pyrazol-5-yl)-3-chloro-6-fluoro-5-methylquinoline-8-carbonitrile] was tested. Which IC50 [1, 3] did it give?
A: Its IC50 is 22 nM.

Q: What about the IC50 (PRMT5/MEP50 complex) of the same compound?
A: Its IC50 is 5940 nM.

Q: With Cn1ncc(-c2ccc3c(=O)[nH]nc(CN)c3c2)c1-c1cc2ccccn2c1C#N [Example 4-256, 2-[4-[4-(aminomethyl)-1-oxo-2H-phthalazin-6-yl]-2-methyl-pyrazol-3-yl]indolizine-3-carbonitrile] as the compound, how does the IC50 [1, 3] read?
A: The IC50 was 1000 nM.

Q: Which IC50 [1, 4] does the source give for N#Cc1c(OC2CC2)cc(Cl)c(F)c1-c1c(-c2ccc3c(=O)[nH]nc(CN)c3c2)cnn1C(F)(F)F (atropisomer, axis not shown; (P)) [Example 16-119, (P)-2-(4-(4-(aminomethyl)-1-oxo-1,2-dihydrophthalazin-6-yl)-1-(trifluoromethyl)-1H-pyrazol-5-yl)-4-chloro-6-cyclopropoxy-3-fluorobenzonitrile] here?
A: Its IC50 is 1000 nM.

Q: What about the IC50 (PRMT5/MEP50 complex) of the same compound?
A: Its IC50 is 489 nM.

Q: Cn1ncc(-c2ccc3c(=O)[nH]nc(CN)c3c2)c1-c1c(F)c(Cl)cc(OC2CC2)c1C#N [Example 16-7, 2-(4-(4-(aminomethyl)-1-oxo-1,2-dihydrophthalazin-6-yl)-1-methyl-1H-pyrazol-5-yl)-4-chloro-6-cyclopropoxy-3-fluorobenzonitrile] was tested. Which IC50 [1, 5] did it give?
A: The IC50 was 1000 nM.

Q: Which IC50 [1, 5] does the source give for Cn1ncc(-c2ccc3c(=O)[nH]nc(CN)c3c2)c1-c1c(F)c(Cl)cc(OC2CC2)c1C#N [Example 16-8, 2-(4-(4-(aminomethyl)-1-oxo-1,2-dihydrophthalazin-6-yl)-1-methyl-1H-pyrazol-5-yl)-4-chloro-6-cyclopropoxy-3-fluorobenzonitrile] here?
A: Its IC50 is 0.8 nM.

Q: Which IC50 [1, 3] does the source give for Cc1ccc(-c2c(-c3ccc4c(=O)[nH]nc(CN)c4c3)cnn2C)c(C#N)c1 [Example 4-106, 2-(4-(4-(aminomethyl)-1-oxo-1,2-dihydrophthalazin-6-yl)-1-methyl-1H-pyrazol-5-yl)-5-methylbenzonitrile] here?
A: Its IC50 is 26 nM.

Q: How did the IC50 [1, 4] turn out when Cn1ncc(-c2ccc3c(=O)[nH]nc(CN)c3c2)c1-c1c(F)cc2ccccc2c1C#N [Example 4-203, 2-(4-(4-(aminomethyl)-1-oxo-1,2-dibydrophthalazin-6-yl)-1-methyl-1H-pyrazol-5-yl)-3-fluoro-1-naphthonitrile] was run?
A: The IC50 was 2 nM.

Q: Cc1c(F)c(-c2c(-c3cc(Cl)c4c(=O)[nH]nc(CN)c4c3)cnn2C)c(C#N)c2ncc(Cl)cc12 (atropisomer, axis not shown; (M)) [Example 16-98, (M)-7-(4-(4-(aminomethyl)-8-chloro-1-oxo-1,2-dihydrophthalazin-6-yl)-1-methyl-1H-pyrazol-5-yl)-3-chloro-6-fluoro-5-methylquinoline-8-carbonitrile] was tested. Which IC50 [1, 3] did it give?
A: The IC50 was 25 nM.

Q: What about the IC50 (PRMT5/MEP50 complex) of the same compound?
A: Its IC50 is 552 nM.

Q: With CCOc1cc(-c2cnn(C)c2-c2c(F)c(Cl)c3ccccc3c2C#N)cc2c(CN)n[nH]c(=O)c12 (single isomer, unassigned) [Example 16-79, (P)-2-[4-[4-(aminomethyl)-8-ethoxy-1-oxo-2H-phthalazin-6-yl]-2-methyl-pyrazol-3-yl]-4-chloro-3-fluoro-naphthalene-1-carbonitrile] as the compound, how does the IC50 [2] read?
A: Its IC50 is 33 nM.

Q: And the IC50 (PRMT5/MEP50 complex)?
A: The IC50 was 8.25 nM.

Q: Cn1ncc(-c2ccc3c(=O)[nH]nc(CN)c3c2)c1-c1c(F)ccc(CC2CC2)c1C#N (single isomer, unassigned) [Example 16-30, (M)-2-(4-(4-(aminomethyl)-1-oxo-1,2-dihydrophthalazin-6-yl)-1-methyl-1H-pyrazol-5-yl)-6-(cyclopropylmethyl)-3-fluorobenzonitrile] was tested. Which IC50 [2] did it give?
A: The IC50 was 17 nM.

Q: And the IC50 (PRMT5/MEP50 complex)?
A: The IC50 was 36.4 nM.

Q: Cn1ncc(-c2cc(Cl)c3c(=O)[nH]nc(CN)c3c2)c1-c1c(F)cc2ccccc2c1C#N (single isomer, unassigned) [Example 16-12, (M)-(4-(4-(aminomethyl)-8-chloro-1-oxo-1,2-dihydrophthalazin-6-yl)-1-methyl-1H-pyrazol-5-yl)-3-fluoro-1-naphthonitrile] was tested. Which IC50 [2] did it give?
A: Its IC50 is 12 nM.

Q: And the IC50 (PRMT5/MEP50 complex)?
A: Its IC50 is 26.4 nM.

Q: Which results are given for CC(C)n1ncc(-c2ccc3c(=O)[nH]nc(CN)c3c2)c1-c1sc2ccccc2c1C#N [Example 19-2, 2-(4-(4-(aminomethyl)-1-oxo-1,2-dihydrophthalazin-6-yl)-1-isopropyl-1H-pyrazol-5-yl)benzo[b]thiophene-3-carbonitrile]?
A: IC50 ([2]; Homo sapiens, HCT-116, 240 h): 4220 nM; IC50 (PRMT5/MEP50 complex): 1650 nM

Q: Which results are given for CCOc1cc(-c2cnn(C)c2-c2c(F)c(Cl)c3ccccc3c2C#N)cc2c(CN)n[nH]c(=O)c12 (single isomer, unassigned) [Example 16-80, (M)-2-[4-[4-(aminomethyl)-8-ethoxy-1-oxo-2H-phthalazin-6-yl]-2-methyl-pyrazol-3-yl]-4-chloro-3-fluoro-naphthalene-1-carbonitrile]?
A: IC50 [2]: 13 nM; IC50 (PRMT5/MEP50 complex): 415 nM

Q: CCOc1cc(-c2cnn(C)c2-c2sc3ccccc3c2C#N)cc2c(CN)n[nH]c(=O)c12 [Example 10-24, 2-(4-(4-(aminomethyl)-8-ethoxy-1-oxo-1,2-dihydrophthalazin-6-yl)-1-methyl-1H-pyrazol-5-yl)benzo[b]thiophene-3-carbonitrile] was tested. Which IC50 ([2]; Homo sapiens, HCT-116, 240 h) did it give?
A: The IC50 was 166 nM.

Q: What about the IC50 (PRMT5/MEP50 complex) of the same compound?
A: The IC50 was 76 nM.

Q: Which IC50 ([2]; Homo sapiens, HCT-116, 240 h) does the source give for COCc1cccc2c(C#N)c(-c3c(-c4ccc5c(=O)[nH]nc(CN)c5c4)cnn3C)sc12 [Example 12-20, 2-[4-[4-(aminomethyl)-1-oxo-2H-phthalazin-6-yl]-2-methyl-pyrazol-3-yl]-7-(methoxymethyl) benzothiophene-3-carbonitrile hydrochloride] here?
A: Its IC50 is 269 nM.

Q: And the IC50 (PRMT5/MEP50 complex)?
A: Its IC50 is 183 nM.

Q: Which results are given for Cc1cc(-c2cnn(C)c2-c2c(F)cc3ncc(Cl)cc3c2C#N)cc2c(CN)n[nH]c(=O)c12 (single isomer, unassigned) [Example 16-50, (M)-6-[4-[4-(aminomethyl)-8-methyl-1-oxo-2H-phthalazin-6-yl]-2-methyl-pyrazol-3-yl]-3-chloro-7-fluoro-quinoline-5-carbonitrile]?
A: IC50 [2]: 9 nM; IC50 (PRMT5/MEP50 complex): 36.4 nM

Q: Which IC50 [2] does the source give for Cn1ncc(-c2cc(Cl)c3c(=O)[nH]nc(CN)c3c2)c1-c1c(F)cc2ncc(Cl)cc2c1C#N (single isomer, unassigned) [Example 16-61, (P)-6-[4-[4-(aminomethyl)-8-chloro-1-oxo-2H-phthalazin-6-yl]-2-methyl-pyrazol-3-yl]-3-chloro-7-fluoro-quinoline-5-carbonitrile] here?
A: Its IC50 is 80 nM.

Q: What about the IC50 (PRMT5/MEP50 complex) of the same compound?
A: Its IC50 is 217 nM.

Q: How did the IC50 [1, 4] turn out when N#Cc1c(OC2CC2)cc(Cl)c(F)c1-c1c(-c2ccc3c(=O)[nH]nc(CN)c3c2)cnn1C(F)(F)F (atropisomer, axis not shown; (M)) [Example 16-120, (M)-2-(4-(4-(aminomethyl)-1-oxo-1,2-dihydrophthalazin-6-yl)-1-(trifluoromethyl)-1H-pyrazol-5-yl)-4-chloro-6-cyclopropoxy-3-fluorobenzonitrile] was run?
A: Its IC50 is 79 nM.

Q: And the IC50 (PRMT5/MEP50 complex)?
A: Its IC50 is 257 nM.

Q: Which IC50 [2] does the source give for Cn1ncc(-c2ccc3c(=O)[nH]nc(CN)c3c2)c1-c1c(F)cc2ncc(Cl)cc2c1C#N (single isomer, unassigned) [Example 16-32, (P)-6-[4-[4-(aminomethyl)-1-oxo-2H-phthalazin-6-yl]-2-methyl-pyrazol-3-yl]-3-chloro-7-fluoro-quinoline-5-carbonitrile] here?
A: Its IC50 is 458 nM.

Q: What about the IC50 (PRMT5/MEP50 complex) of the same compound?
A: The IC50 was 195 nM.
